Source: patent publication US20240000769A1, “AMORPHOUS SOLID DISPERSIONS” (UCB Biopharma SRL, priority 2020, published 2024)
≈ marks a conversion by molar mass, not a printed value. Read-outs that look alike come from different tables or passages of the source.

How the values were obtained:
[1] = Dynamic dissolution profile, USP Apparatus 2, simulated gastric media then FaSSIF-V2; assay type: physicochemical; settings: 37° C., 30 min 0.1N HCl (1 mg/mL) then 180 min FaSSIF-V2 (0.5 mg/mL)
Description: The dissolution profile was determined in a USP Apparatus 2 type (Distek 2100 C Dissolution Apparatus) at 37° C. The dynamic dissolution test includes first a 30 minutes dissolution in simulated gastric media (0.1N HCl) to achieve a concentration equivalent to a concentration of compound of formula (I) of 1 mg/mL, followed by a 180 minutes dissolution in FaSSIF-V2 to achieve a concentration equivalent to a concentration of compound of formula (I) of 0.5 mg/mL.
Then, 50 mL of simulated gastric media (0.1N HCl) was added to the vessel and the paddle speed was fixed at 100 rpm. After 30 minutes, an equivalent volume (50 mL) of fasted state biorelevant media was added to the vessel to obtain the composition of FaSSIF-V2. Dissolution was carried out in triplicate (n=3). At each timepoint, the suspension was filtered through a 0.45-μm ultra free filter (Merck Millipore) and the content of compound of formula (I) was determined by HPLC. The filtrate was then diluted with a suitable organic solvent.

[2] = Shake flask solubility (24 h) in buffer/biorelevant media; assay type: physicochemical; settings: thermodynamic from solid, n=3, read-out: Solubility Measurements (24 h)
Description: The respective solubility of compounds of formula (Ia) and ASD1 was determined in different media while using the shake flask method. An excess of solid (equivalent to a concentration of compound of formula (I) of 5 mg/mL) was suspended in 5 mL of buffer/biorelevant media as specifically described in Table 4 and incubated in a sealed glass vial (10 mL) for 24 h at both RT and 37° C. in a climatic chamber equipped with a rotary mixer. The 24h time point was assumed to have reached solubility, at which time the suspension was filtered through a 0.45-μm ultra free filter (Merck Millipore) and the drug content was determined by HPLC. The solubility of compound (Ia) and ASD1 was determined in triplicate (n=3). Where required to prevent drug precipitation, the filtrate was diluted with a suitable organic solvent. […] These media are respectively a phosphate buffer, FasSGF, FASSIF-V2 and FeSSIF-V2. FasSG is fasted condition gastric fluid. FasSGF is prepared at pH 1.6 and contains 0.08 mM Taurocholate, 0.02 mM phospholipids, 34 mM sodium and 59 mM chloride. FaSSIF-V2 and FeSSIF-V2 are Fasted and Fed State Biorelevant Media, respectively. FaSSIF-V2 is prepared at pH 6.5 and contains 3 mM Taurocholate, 0.2 mM Phospholipids, 106 mM Sodium, 69 mM Chloride and 19 mM Maleic acid. FeSSIF-V2 is prepared at pH 5.8 and contains 10 mM Taurocholate, 2 mM Phospholipids, 0.8 mM Oleate, 5 mM Glycerol monoleate, 218 mM Sodium, 125 mM Chloride and 55 mM Maleic acid.

- solubility at 24 h ([2]; aqueous buffer, Phosphate buffer (50 mM), pH 5.8, RT): < 1 µg/mL
- solubility at 24 h ([2]; aqueous buffer, Phosphate buffer (50 mM), pH 6.5, RT): < 1 µg/mL
- solubility at 24 h ([2]; fassgf or other biorelevant, FasSGF, pH 1.6, 37° C.): < 1 µg/mL
- solubility at 24 h ([2]; FaSSIF-V2, pH 6.5, 37° C.): ~1.5 µg/mL (≈ 3.15 µM)
- solubility at 24 h ([2]; FeSSIF-V2, pH 5.8, 37° C.): ~4 µg/mL (≈ 8.4 µM)
SMILES: C[C@H]1c2cccc(C(C)(C)O)c2C[C@H](CO)N1C(=O)Cc1c(Cl)ccc2c1c(Cl)nn2C [Compound (Ia), 2-(3,5-dichloro-1-methyl-indazol-4-yl)-1-[(1S,3R)-3-(hydroxymethyl)-5-(1-hydroxy-1-methyl-ethyl)-1-methyl-3,4-dihydro-1H-isoquinolin-2-yl]ethanone]
- dissolution profile over time [1]: drops in gastric media to very low levels
